Test results taken from patent publication US20240174618A1, “SUBSTITUTED (2-HETEROARYLOXYPHENYL)SULFONATES, SALTS THEREOF AND THEIR USE AS HERBICIDAL AGENTS” (Bayer Aktiengesellschaft, priority 2021, published 2024).

Experiments:
Assay type in all cases: in vivo
[1] = system: Alopecurus myosuroides (ALOMY); assay: A. Herbicidal pre-emergence efficacy, ALOMY; conditions: 1280 g/ha; scored visually after about 3 weeks vs untreated controls
Text: (§1) Seeds of mono- and dicotyledonous weed plants were placed in plastic pots in sandy loam soil (doubly sown with one species each of mono- or dicotyledonous weed plants per pot) and covered with soil. The compounds of the invention, formulated in the form of wettable powders (WP) or as emulsion concentrates (EC), were then applied onto the surface of the covering soil as aqueous suspension or emulsion with addition of 0.5% additive at a water application rate of 600 liters per hectare (converted). After the treatment, the pots were placed in a greenhouse and kept under good growth conditions for the test plants. After about 3 weeks, the efficacy of the preparations was scored visually in comparison with untreated controls as percentages.
(§2) For example, • 100% efficacy=plants have died, • 0% efficacy=like untreated control plants.
(§3) Tables A1a to A12c below show the effects of selected compounds of the general formula (I) according to table 1 on various harmful plants at an application rate corresponding to 1280 g/ha or less, which were obtained by the experimental procedure mentioned above.

[2] = system: Digitaria sanguinalis (DIGSA); assay: A. Herbicidal pre-emergence efficacy, DIGSA; conditions: scored visually after about 3 weeks vs untreated controls
Method in brief: (§4)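 Pre-emergence soil-surface spray in sandy loam pots, WP/EC in water plus 0.5% additive, 600 L/ha. Visual % damage rating after about 3 weeks in greenhouse vs. untreated; 0% = control-like, 100% = dead plants. Rates up to 1280 g/ha.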

[3] = system: Echinochloa crus-galli (ECHCG); assay: B. Herbicidal post-emergence efficacy, ECHCG; conditions: 1280 g/ha, rated visually after about 3 weeks
Method in brief: (§5)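 Post-emergence foliar spray, at application rates of 1280 g/ha or less, on one-leaf-stage plants 2–3 weeks post-sowing, using aqueous WP or EC suspensions with 0.5% additive at 600 L/ha. Visual percent efficacy relative to untreated plants scored roughly 3 weeks later in the greenhouse.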

Stellaria media (STEME) [4] = assay: A. Herbicidal pre-emergence efficacy, STEME
Method in brief: as §4

[5] = system: Abutilon theophrasti (ABUTH); assay: A. Herbicidal pre-emergence efficacy, ABUTH; conditions: scored visually after about 3 weeks vs untreated controls
Method in brief: as §4

[6] = system: Abutilon theophrasti (ABUTH); assay: B. Herbicidal post-emergence efficacy, ABUTH; conditions: rated visually after about 3 weeks
Method in brief: as §5

Stellaria media (STEME) [7] = assay: B. Herbicidal post-emergence efficacy, STEME
Method in brief: as §5

Veronica persica (VERPE) [8] = assay: A. Herbicidal pre-emergence efficacy, VERPE
Method in brief: as §4

[9] = system: Echinochloa crus-galli (ECHCG); assay: A. Herbicidal pre-emergence efficacy, ECHCG; conditions: scored visually after about 3 weeks vs untreated controls
Method in brief: as §4

Lolium rigidum (LOLRI) = assay: A. Herbicidal pre-emergence efficacy, LOLRI
Text: as §1, §2, §3

Setaria viridis (SETVI) [10] = assay: A. Herbicidal pre-emergence efficacy, SETVI
Method in brief: as §4

[11] = system: Amaranthus retroflexus (AMARE); assay: A. Herbicidal pre-emergence efficacy, AMARE
Method in brief: as §4

Poa annua (POAAN) [12] = assay: A. Herbicidal pre-emergence efficacy, POAAN
Method in brief: as §4

Kochia scoparia (KCHSC) [13] = assay: A. Herbicidal pre-emergence efficacy, KCHSC; conditions: pre-emergence
Method in brief: as §4

[14] = system: Matricaria inodora (MATIN); assay: A. Herbicidal pre-emergence efficacy, MATIN
Text: as §1, §2, §3

Kochia scoparia (KCHSC) [15] = assay: B. Herbicidal post-emergence efficacy, KCHSC; conditions: for Post-emergence efficacy against KCHSC in %: rated visually after about 3 weeks; for Post-emergence efficacy against KCHSC: 1280 g/ha
Method in brief: as §5

[16] = system: Digitaria sanguinalis (DIGSA); assay: B. Herbicidal post-emergence efficacy, DIGSA; conditions: 1280 g/ha, rated visually after about 3 weeks
Method: (§6) Seeds of mono- and dicotyledonous weed plants were placed in plastic pots in sandy loam soil (doubly sown with in each case one species of mono- or dicotyledonous weed plants per pot), covered with soil and cultivated in a greenhouse under controlled growth conditions. 2 to 3 weeks after sowing, the test plants were treated at the one-leaf stage. The compounds of the invention, formulated in the form of wettable powders (WP) or as emulsion concentrates (EC), were applied onto the green parts of the plants as aqueous suspension or emulsion with addition of 0.5% additive at a water application rate of 600 liters per hectare (converted). After the test plants had been kept in the greenhouse under optimum growth conditions for about 3 weeks, the activity of the preparations was rated visually in comparison to untreated controls.
(§7) For example, • 100% efficacy=plants have died, • 0% efficacy=like untreated control plants
(§8) Tables B1a to B12c below show the effects of selected inventive compounds of the general formula (I) according to table 1 on various harmful plants at an application rate corresponding to 1280 g/ha or less, which were obtained by the experimental procedure mentioned above.

[17] = system: Amaranthus retroflexus (AMARE); assay: B. Herbicidal post-emergence efficacy, AMARE; conditions: 1280 g/ha
Method in brief: as §5

Poa annua (POAAN) [18] = assay: B. Herbicidal post-emergence efficacy, POAAN; conditions: 1280 g/ha
Method in brief: as §5

Setaria viridis (SETVI) [19] = assay: B. Herbicidal post-emergence efficacy, SETVI; conditions: 1280 g/ha
Method: as §6, §7, §8

Veronica persica (VERPE) [20] = assay: B. Herbicidal post-emergence efficacy, VERPE
Method in brief: as §5

[21] = pre-emergence, dosage 1280 g/ha

Row | SMILES | Pre-emergence efficacy against DIGSA ([2]; 320 g/ha) [%] | Pre-emergence efficacy against DIGSA ([2]; 1280 g/ha) [%] | Post-emergence efficacy against ECHCG in % [3] [%] | Pre-emergence efficacy against STEME (Stellaria media (STEME) [4]; dosage 320 g/ha) [%] | Pre-emergence efficacy against STEME (Stellaria media (STEME) [4]; dosage 1280 g/ha) [%] | Pre-emergence efficacy against ABUTH ([5]; 1280 g/ha) [%] | Post-emergence efficacy against ABUTH in % ([6]; 1280 g/ha) [%] | Post-emergence efficacy against STEME (Stellaria media (STEME) [7]; 1280 g/ha) [%] | Pre-emergence efficacy against VERPE in % (Veronica persica (VERPE) [8]; 1280 g/ha) [%] | Pre-emergence efficacy against ECHCG ([9]; 320 g/ha) [%] | Pre-emergence efficacy against ECHCG ([9]; 1280 g/ha) [%] | Pre-emergence efficacy against LOLRI (Lolium rigidum (LOLRI); dosage 1280 g/ha) [%] | Pre-emergence efficacy against SETVI (Setaria viridis (SETVI) [10]; dosage 320 g/ha) [%] | Pre-emergence efficacy against SETVI (Setaria viridis (SETVI) [10]; dosage 1280 g/ha) [%] | Pre-emergence efficacy against AMARE in % ([11]; 320 g/ha) [%] | Pre-emergence efficacy against AMARE in % ([11]; 1280 g/ha) [%] | Pre-emergence efficacy against POAAN (Poa annua (POAAN) [12]; dosage 320 g/ha) [%] | Pre-emergence efficacy against POAAN (Poa annua (POAAN) [12]; dosage 1280 g/ha) [%] | Pre-emergence efficacy against KCHSC (Kochia scoparia (KCHSC) [13]; dosage 1280 g/ha) [%] | Pre-emergence efficacy against MATIN [14, 21] [%] | further results
1 | O=S(=O)(CCCC(F)(F)F)Oc1c(Br)cccc1Oc1ncc(F)cn1 [Example I-44] | 100 | 100 | 100 | 100 | 100 | 100 | 100 | 100 | 100 | 100 | 100 | 100 | 100 | 100 | 100 | 100 | 100 | 100 | 100 | 100 | Pre-emergence efficacy against ALOMY [1]: 100%; Pre-emergence efficacy against STEME (Stellaria media (STEME) [4]; dosage 80 g/ha): 100%; Post-emergence efficacy against ABUTH in % ([6]; 320 g/ha): 90%; Post-emergence efficacy against STEME (Stellaria media (STEME) [7]; 80 g/ha): 100%; Post-emergence efficacy against STEME (Stellaria media (STEME) [7]; 320 g/ha): 100%; Pre-emergence efficacy against VERPE in % (Veronica persica (VERPE) [8]; 320 g/ha): 100%; Pre-emergence efficacy against LOLRI (Lolium rigidum (LOLRI); dosage 320 g/ha): 100%; Pre-emergence efficacy against AMARE in % ([11]; 80 g/ha): 100%; Pre-emergence efficacy against KCHSC (Kochia scoparia (KCHSC) [13]; dosage 320 g/ha): 100%; Pre-emergence efficacy against MATIN ([14]; 320 g/ha, scored visually after about 3 weeks vs untreated controls): 90%; Post-emergence efficacy against KCHSC in % (Kochia scoparia (KCHSC) [15]; 80 g/ha): 100%; Post-emergence efficacy against KCHSC in % (Kochia scoparia (KCHSC) [15]; 320 g/ha): 100%; Post-emergence efficacy against KCHSC (Kochia scoparia (KCHSC) [15]): 100%
2 | O=S(=O)(CC1CCCO1)Oc1c(F)cccc1Oc1ncc(Cl)cn1 (centres unmarked) [Example I-54] | 90 | 100 | 90 | 90 | 100 | 100 | 90 | 90 | 90 | 100 | 100 | 90 | 100 | 100 | 100 | 100 | 90 | 100 | 90 | 90 | Post-emergence efficacy against DIGSA in % [16]: 90%; Pre-emergence efficacy against ABUTH ([5]; 320 g/ha): 90%; Post-emergence efficacy against AMARE [17]: 90%; Post-emergence efficacy against POAAN (Poa annua (POAAN) [18]): 90%; Post-emergence efficacy against SETVI (Setaria viridis (SETVI) [19]): 90%; Post-emergence efficacy against VERPE (Veronica persica (VERPE) [20]; 80 g/ha): 90%; Post-emergence efficacy against VERPE (Veronica persica (VERPE) [20]; 320 g/ha): 90%; Post-emergence efficacy against VERPE (Veronica persica (VERPE) [20]; 1280 g/ha): 90%; Post-emergence efficacy against KCHSC (Kochia scoparia (KCHSC) [15]): 90%
